# Patent publication US20240279304A1, “DSG2 COMPOSITIONS AND METHODS” (Arvada Therapeutics, Inc., priority 2021, published 2024)
# Entries after “also recorded” stand apart in the source; their conditions may differ.
# What was measured:
# [1] = system: human iPSC-derived cardiomyocytes; experiment: CiPA multielectrode array (MEA) assay, cell index; type: cell-based
# Procedure: To determine the effect of anti-DSG2 antibodies in cardiomyocytes, the cardiac in vitro proarrhythmia (CiPA) assay was performed (Sager et al. Am Heart J 2014; 167:292-300; the contents of which are herein incorporated by reference in its entirety). CiPA is envisioned to consist of four components: (1) an evaluation of the effects of test agents on cardiac ion channel assays; (2) in silico modeling of the cardiac action potential based on the ion channel results to integrate the data with cardiac function; (3) experimental measurement of test agent effects in human ventricular myocytes to confirm the modeling result; and (4) scoring the results. The multielectrode array (MEA) assay is a component of CiPA which uses human induced pluripotent stem cell (iPSC)-derived cardiomyocytes to evaluate two-dimensional excitation propagation by recording spontaneous ECG-like field potentials. The sodium spike quantified below is a measurement of the specific sodium channel current in the cardiomyocyte and is also described in Blinova K, et al. Cell Rep. 2018 Sep. 25; 24(13):3582-3592 (the contents of which are herein incorporated by reference in its entirety). CiPA is considered a clinically validated cardiomyocyte-based assay by the FDA and the EMA. […] The parameters evaluated include measuring a change in the spike in the component of electrical signal propagation (e.g. sodium spike) and cell index—a function of cell impedance and cell number. Changes in sodium spike may be indicative of arrhythmia and a change in cell index (CI) may be indicative of changes to cell connectivity.
# Cell index is inversely related the cell layer's conductivity to electrical current. Increased conductivity across the cell layer, may indicate that there are more gaps in the cell layer, implying that the cells are less well-adhered to each other. Thus, increased conductivity across the cell layer, may result in lower cell index. […] The concentration of anti-DSG2 antibodies varied from 0.00005 μg/mL to 5 μg/mL. […] The concentration of lidocaine varied from 3 μM to 100 μM. […] The concentration of anti-DSG2 antibodies varied from 0.00005 μg/mL to 5 μg/mL.
# [2] = Dynamic light scattering (DLS) of DSG2 fusion polypeptides; type: physicochemical; conditions: average polymer distribution index
# Source text: 6 candidates were compared to the reference sample.
# [3] = system: human iPSC cardiomyocytes; experiment: CiPA multielectrode array (MEA) assay, sodium spike; type: cell-based; conditions: 1.1 μg/mL DSG2FP #1; anti-DSG2 antibodies 0.5 μg/mL
# Procedure: To determine the effect of anti-DSG2 antibodies in cardiomyocytes, the cardiac in vitro proarrhythmia (CiPA) assay was performed (Sager et al. Am Heart J 2014; 167:292-300; the contents of which are herein incorporated by reference in its entirety). CiPA is envisioned to consist of four components: (1) an evaluation of the effects of test agents on cardiac ion channel assays; (2) in silico modeling of the cardiac action potential based on the ion channel results to integrate the data with cardiac function; (3) experimental measurement of test agent effects in human ventricular myocytes to confirm the modeling result; and (4) scoring the results. […] The sodium spike quantified below is a measurement of the specific sodium channel current in the cardiomyocyte and is also described in Blinova K, et al. Cell Rep. […] The parameters evaluated include measuring a change in the spike in the component of electrical signal propagation (e.g. sodium spike) and cell index—a function of cell impedance and cell number. […]
# Commercially available anti-DSG2 antibodies were tested in the cardiomyocyte CiPA assay. […] The voltage (μV) is measured at time intervals of 0, 1 hour, 12 hours, 24 hours, 48 hours, 72 hours, and 96 hours. […]
# [4] = system: ARVC serum (anti-DSG2 antibodies in serum obtained from ARVC patients); experiment: anti-DSG2 antibody MSD assay, blocking of ARVC patient serum; type: binding, human; design: % inhibition: concentration or dose not given beside the values; conditions: for % inhibition: fraction C (table title)
# Procedure: (§1) The DSG2 fusion polypeptides were tested for the ability to block anti-DSG2 antibody by an anti-DSG2 antibody meso scale discovery (MSD) assay. […] The DSG2 fusion polypeptides were subjected to size exclusion chromatography and different elution fractions were examined. […] As shown in Table 7 and FIG. 1B, FIG. 1C, and FIG. 1D, enriching for fraction C improved the ability of the DSG2 fusion polypeptides to block ARVC patient serum.
# ARVC diagnosis is based on complex tool known as Task Force Criteria, which can lead to varying levels of conviction about ARVC diagnosis. The utility of DSG2 antibodies as an indicator of ARVC disease state and severity was explored. Approximately 50 cc serum was collected from diagnosed ARVC patients. A total of 10 ARVC patients and 5 healthy controls were used for the analysis. ARVC serum samples were separated into more robust diagnosis and less robust diagnosis, based on available data in the patient medical records and anti-DSG2 antibody levels were compared using an anti-DSG2 antibody meso scale discovery (MSD)-based assay.
# anti-DSG2 antibody = anti-DSG2 antibody meso scale discovery (MSD) assay, blocking of anti-DSG2 antibody; type: binding; conditions: for % inhibition: fraction C (table title)
# Procedure: as §1
substance,measurement,setting,value
DSG2FP#1: R&D Systems DSG2 extracellular domain (49-608 of SEQ ID NO: 30); linker IEGRMD; amino acids 100-330 of IgG1,reversal of effects of anti-DSG2 antibodies on cell index (in words),[1],reversed; also recorded: completely blocks the effect of the anti-DSG2 antibodies
same,Cell Index (+/- SEM),[1]; added with Anti-DSG2 antibody (0.00005 μg/mL),22.4 (1.9)
same,Cell Index (+/- SEM),[1]; added with Anti-DSG2 antibody (0.0005 μg/mL),22.4 (1.1)
same,Cell Index (+/- SEM),[1]; added with Anti-DSG2 antibody (0.005 μg/mL),20.4 (0.5)
same,Cell Index (+/- SEM),[1]; added with Anti-DSG2 antibody (0.05 μg/mL),21.6 (0.4)
same,Cell Index (+/- SEM),[1]; added with Anti-DSG2 antibody (0.5 μg/mL),22.0 (0.8)
same,Cell Index (+/- SEM),[1]; added with Anti-DSG2 antibody (5 μg/mL),24.1 (0.5)
same,Cell Index (+/- SEM),[1]; added with Anti-VCAM1 antibody (0.00005 μg/mL),23.2 (0.7)
same,Cell Index (+/- SEM),[1]; added with Anti-VCAM1 antibody (0.0005 μg/mL),22.0 (0.5)
same,Cell Index (+/- SEM),[1]; added with Anti-VCAM1 antibody (0.005 μg/mL),21.0 (0.5)
same,Cell Index (+/- SEM),[1]; added with Anti-VCAM1 antibody (0.05 μg/mL),21.0 (0.4)
same,Cell Index (+/- SEM),[1]; added with Anti-VCAM1 antibody (0.5 μg/mL),21.8 (0.5)
same,Cell Index (+/- SEM),[1]; added with Anti-VCAM1 antibody (5 μg/mL),24.6 (0.5)
same,Cell Index (+/- SEM),[1]; added with Rabbit IgG (0.00005 μg/mL),22.5 (1.7)
same,Cell Index (+/- SEM),[1]; added with Rabbit IgG (0.0005 μg/mL),22.4 (1.3)
same,Cell Index (+/- SEM),[1]; added with Rabbit IgG (0.005 μg/mL),21.0 (0.8)
same,Cell Index (+/- SEM),[1]; added with Rabbit IgG (0.05 μg/mL),21.3 (0.4)
same,Cell Index (+/- SEM),[1]; added with Rabbit IgG (0.5 μg/mL),21.1 (0.4)
same,Cell Index (+/- SEM),[1]; added with Rabbit IgG (5 μg/mL),24.2 (0.5)
same,PDI,[2],0.33
same,rescue of the effect of anti-DSG2 antibodies on cardiomyocyte sodium spike (in words),[3],rescued; also recorded: completely blocks the effect of the anti-DSG2 antibodies on the sodium spike
same,ability to bind and block ARVC serum (in words),[4],able to bind and block anti-DSG2 antibody as well as serum obtained from ARVC patients
same,blocking of assay signal from ARVC patient serum samples with strong clinical data (in words),"[4]; Example 3, competing DSG2 polypeptide added",could also be blocked
same,% inhibition,[4]; sample: ARVC serum 1,96.7%
same,% inhibition,[4]; sample: ARVC serum 2,82.9%
same,% inhibition,[4]; sample: ARVC serum 3,95.8%
same,% inhibition,[4]; sample: ARVC serum 4,95.7%
same,% inhibition,[4]; sample: ARVC serum 5,93.1%
same,ability to bind to and block anti-DSG2 antibody (in words),anti-DSG2 antibody,able to bind and block anti-DSG2 antibody
same,% inhibition,anti-DSG2 antibody; sample: Anti-DSG2 antibody (200 ng/mL) control,63.8%
same,% inhibition,anti-DSG2 antibody; sample: Anti-DSG2 antibody (1000 ng/mL) control,88.4%
same,% inhibition,anti-DSG2 antibody; sample: no antibody control,4.8%
